Test results published in PubChem BioAssay AID1507 (NMMLSC, 2009).
Active and inactive are the calls of the source. How the calls were made is not given here.

Tested on: S. aureus strains, alpha hemolysin production inhibition
Assay: inhibition of S. aureus alpha hemolysin production, S. aureus quorum sensing inhibitors, NM300, NM400, MRSA3757 (AID 1507)
Conditions: for inhibition: stronger effect = higher value
[1] = hemolysin inhibition, MRSA3757, at 12 µM
[2] = hemolysin inhibition, strain NM400, at 12 µM

SMILES	inhibition (at 30 µM) [%]	inhibition (hemolysin inhibition, strain NM300, at 30 µM) [%]	outcome (at 12 µM)	inhibition [1] [%]	inhibition [2] [%]	inhibition (at 6 µM) [%]	inhibition (hemolysin inhibition, strain NM300, at 6 µM) [%]
Cc1c(Cl)cccc1Nc1ccccc1C(=O)O	99	100	–	–	–	–	–
CC1CCCN(C(C(=O)Nc2ccc3c(c2)OCCO3)c2ccccc2)C1 (stereo not given)	–	–	inactive; agr3 active	20	57	–	–
CCc1oc2ccccc2c1C(=O)c1cc(Br)c(O)c(Br)c1	–	–	–	–	–	100	100
CC1CCCN(C(C(=O)Nc2ccc3c(c2)OCO3)c2ccccc2)C1 (stereo not given)	–	–	inactive; agr3 active	15	55	–	–
